{"source": "paper PMC6693348", "about": "(Journal of medicinal chemistry, 2019)", "key": {"[1]": {"system": "epidermal growth factor receptor (EGFR)", "conditions": "cited from earlier work"}, "[2]": {"conditions": "reference standard; cited from earlier work"}, "[3]": {"biological_target": "EGFR protein ECD (Homo sapiens, UniProt P00533)", "test": "Surface plasmon resonance with immobilized EGFR", "format": "binding", "conditions": "analyte 0–300 μM"}}, "note": "Like-named read-outs stand apart in the source and are kept apart here.", "data": [{"compound": "LARLLT [D4]", "values": [{"measurement": "affinity for EGFR", "setting": "[1]; both in vitro and in vivo", "result": "high affinity"}]}, {"compound": "YHWY-GYTPQNVI [GE11]", "values": [{"measurement": "affinity for EGFR", "setting": "[1]; both in vitro and in vivo", "result": "high affinity"}]}, {"compound": "cyclo(K(N3)larllt)", "values": [{"measurement": "affinity for EGFR", "setting": "[1]", "result": "high affinity"}]}, {"compound": "CN(C)c1ccc2nc3ccc(=[N+](C)C)cc-3sc2c1", "note": "[methylene blue]", "values": [{"measurement": "ΦF (fluorescence quantum yield)", "setting": "[2]", "result": 0.035}]}, {"compound": "8-(3,5-Dimethoxyphenyl)-bis(3-p-isothio-cyanato phenyl)-BODIPY [BODIPY 10]", "values": [{"measurement": "specificity of binding to EGFR ECD (sensorgrams)", "setting": "[3]", "result": "nonspecific binding or weak binding"}]}]}
